Structures can show the parent of a compound that is named as a salt.
How the values were obtained:
Assay in all cases: Inhibition of cancer cell proliferation (MTT)
Assay type in all cases: cell-based, human
A549 = tested on: A549
Procedure: (§1) A test was conducted to confirm whether the compounds obtained in the above Examples can inhibit proliferation of human colon carcinoma cell line HCT116, glioblastoma cell lines U-87MG and T98G, neuroblastoma cell lines SH-SYSY and SK-N-SH, and lung cancer cell lines A549 and NCI-H23.
(§2) HCT116, U-87MG, SH-SYSY, SK-N-SH and A549 cells were culured in DMEM medium containing 10% FBS. T98G cells were cultured in MEM medium containing 10% FBS and NCI-H23 cells were cultured in […] medium containing 10% FBS. In order to analyze an inhibition of proliferation, HCT116 cells were dispensed in 2000 cells/well into 96 well plate, and SH-SYSY, SK-N-SH, U-87MG, T98G, A549, and NCI-H23 cells were dispensed in 3000 cells/well into 96 well plate. And then, the cells were cultured at 5% CO2 and 37° C. for 16 hrs to allow the cells to attach to the wells. The compounds of the above Examples were added to each well at a concentration of 0.004, 0.013, 0.04, 0.12, 0.37, 1.1, 3.3, and 10 uM, and the culture volume was adjusted to 100 ul. A control group was treated with dimethylsulfoxide (DMSO) at the same concentration, 0.08%, as used to treat the test compounds. Afterwards, cells were cultured at 5% CO2 and 37° C. for 72 hrs. And then, 10 ul of the solution of MTT (3-(4,5-dimethylthiazol-2-yl)-2,5-diphenyltetrazolium bromide) dissolved in PBS at 5 mg/ml was added to each well to identify viable cells and the cells were cultured for further 2 hrs. The culture solution was removed, 100 ul of DMSO was added to dissolve the formed formazan and then an absorbance was measured at 535 nm. Based on the absorbance of the control cells not treated with the compounds, the amounts of the viable cells according to the concentration of the compounds were calculated. GI50 (growth inhibition 50) value which is the concentration of the compound to inhibit cancer cell proliferation by 50% was calculated using Graphpad Prism 5.0 program.

HCT116 = tested on: HCT116
Procedure: as §1, §2

NCI-H23 = tested on: NCI-H23
Procedure: as §1, §2

T98G = tested on: T98G
Procedure: as §1, §2

U-87MG = tested on: U-87MG
Procedure: as §1, §2

Row | GI50 (A549; Homo sapiens, A549, 72 h) [µM] | GI50 (HCT116; Homo sapiens, HCT-116, 72 h) [µM] | GI50 (NCI-H23; Homo sapiens, NCI-H23, 72 h) [µM] | GI50 (T98G; Homo sapiens, T98G, 72 h) [µM] | GI50 (U-87MG; Homo sapiens, U-87 MG, 72 h) [µM] | GI50 (A549; 72 hrs) [µM] | GI50 (HCT116; 72 hrs) [µM] | GI50 (NCI-H23; 72 hrs) [µM] | GI50 (T98G; 72 hrs) [µM] | GI50 (U-87MG; 72 hrs) [µM] | SMILES
1 | 0.46 | 0.23 | 0.96 | 0.46 | 0.28 |  |  |  |  |  | CCN1CCC(c2nc(N)nc(-c3nc(-c4ccnc(N)c4F)ccc3O)c2C)CC1 [Example 43, 2′-amino-6-(2-amino-6-(1-ethylpiperidin-4-yl)-5-methylpyrimidin-4-yl)-3′-fluoro-[2,4′-bipyridin]-5-ol]
2 |  | 0.04 | 0.16 | 0.13 | 0.07 | 0.15 |  |  |  |  | CCCc1c(-c2nc(-c3ccnc(N)c3F)ccc2O)nc(N)nc1C1CCN(C(C)C)CC1 [Example 50, 2′-amino-6-(2-amino-6-(1-isopropylpiperidin-4-yl)-5-propylpyrimidin-4-yl)-3′-fluoro-[2,4′-bipyridin]-5-ol]
3 |  |  |  |  |  | 0.02 | 0.04 | 0.04 | 0.02 | 0.01 | CC(C)N1CCC(c2cc(-c3nc(-c4ccnc(N)c4F)ccc3O)nc(N)n2)CC1 [Example 88, 2′-amino-6-(2-amino-6-(1-isopropylpiperidin-4-yl)pyrimidin-4-yl)-3′-fluoro-[2,4′-bipyridin]-5-ol 4hydrochloride]
4 | 0.04 | 0.02 | 0.07 | 0.11 | 0.04 |  |  |  |  |  | CC(C)N1CCCC(c2cc(-c3nc(-c4ccnc(N)c4F)ccc3O)nc(N)n2)C1 (stereo not shown) [Example 41, 2′-amino-6-(2-amino-6-(1-isopropylpiperidin-3-yl)pyrimidin-4-yl)-3′-fluoro-[2,4′-bipyridin]-5-ol]
5 |  |  |  |  |  | 0.03 | 0.02 | 0.05 | 0.07 | 0.03 | CCCN1CCCC(c2cc(-c3nc(-c4ccnc(N)c4F)ccc3O)nc(N)n2)C1 (stereo not shown) [Example 91, 2′-amino-6-(2-amino-6-(1-propylpiperidin-3-yl)pyrimidin-4-yl)-3′-fluoro-[2,4′-bipyridin]-5-ol 4hydrochloride]
6 |  |  |  |  |  | 0.06 | 0.02 | 0.14 | 0.09 | 0.07 | Nc1nc(-c2nc(-c3ccnc(N)c3F)ccc2O)cc(C2CCOCC2)n1 [Example 85, 2′-amino-6-(2-amino-6-(tetrahydro-2H-pyran-4-yl)pyrimidin-4-yl)-3′-fluoro-[2,4′-bipyridin]-5-ol 3hydrochloride]

The next lines start with the compound.

Row | SMILES | GI50 (A549; Homo sapiens, A549, 72 h) [µM] | GI50 (HCT116; Homo sapiens, HCT-116, 72 h) [µM] | GI50 (NCI-H23; Homo sapiens, NCI-H23, 72 h) [µM] | GI50 (T98G; Homo sapiens, T98G, 72 h) [µM] | GI50 (U-87MG; Homo sapiens, U-87 MG, 72 h) [µM] | GI50 (A549; 72 hrs) [µM] | GI50 (HCT116; 72 hrs) [µM] | GI50 (NCI-H23; 72 hrs) [µM] | GI50 (T98G; 72 hrs) [µM] | GI50 (U-87MG; 72 hrs) [µM]
7 | CCCN1CCC(c2nc(N)nc(-c3nc(-c4ccnc(N)c4F)ccc3O)c2C)CC1 [Example 44, 2′-amino-6-(2-amino-5-methyl-6-(1-propylpiperidin-4-yl)pyrimidin-4-yl)-3′-fluoro-[2,4′-bipyridin]-5-ol] | 0.14 | 0.06 |  | 0.13 | 0.09 |  |  | 0.33 |  | 
8 | CCCN1CCCC(c2cc(-c3nc(-c4ccnc(N)c4F)ccc3O)nc(N)n2)C1 (stereo not shown) [Example 40, 2′-amino-6-(2-amino-6-(1-propylpiperidin-3-yl)pyrimidin-4-yl)-3′-fluoro-[2,4′-bipyridin]-5-ol] |  | 0.01 | 0.03 | 0.05 | 0.02 | 0.01 |  |  |  | 
9 | Cc1cnc(N)nc1-c1nc(-c2ccnc(N)c2F)ccc1O [Example 55, 2′-amino-6-(2-amino-5-methylpyrimidin-4-yl)-3′-fluoro-[2,4′-bipyridin]-5-ol] |  | 0.05 |  |  | 0.11 | 0.16 |  | 0.18 | 0.13 | 
10 | Nc1nc(-c2nc(-c3ccnc(N)c3F)ccc2O)cc(C2CCNCC2)n1 [Example 83, 2′-amino-6-(2-amino-6-(piperidin-4-yl)pyrimidin-4-yl)-3′-fluoro-[2,4′-bipyridin]-5-ol 4hydrochloride] |  |  |  |  |  | 0.12 | 0.03 | 1.18 | 0.15 | 0.09
11 | CCCN1CCC(c2nc(N)nc(-c3nc(-c4ccnc(N)c4F)ccc3O)c2C)CC1 [Example 95, 2′-amino-6-(2-amino-5-methyl-6-(1-propylpiperidin-4-yl)pyrimidin-4-yl)-3′-fluoro-[2,4′-bipyridin]-5-ol 4hydrochloride] |  |  |  |  |  | 0.08 | 0.06 | 0.15 | 0.16 | 0.1

Source: patent publication US20200190062A1, “HETEROCYCLIC COMPOUND AND PHARMACEUTICAL COMPOSITION COMPRISING SAME” (BEYONDBIO INC., priority 2015, published 2020)
